Here are results for 20 molecules from patent EP4644375A1, “SUBSTITUTED HYDROQUINOLINES FOR THE TREATMENT OF GLIOBLASTOMA MULTIFORME” (Molius Saglik Teknolojileri Anonim Sirketi, priority 2024, dated 2025).

Assay [1] relates to U138-MG human glioma cell. The assay is described as follows: Cell proliferation analysis (MTT). In kind it is cell-based. The settings on record: 10 µM, two days, MTT; for activity at 10 µM / inhibition at 10 µM: Homo sapiens, 48 h.
The subject of another assay is U87-MG human glioma cell. Briefly: Cell proliferation analysis (MTT). The assay is classed as cell-based. The settings on record: 10 µM, two days, MTT; for activity at 10 µM / inhibition at 10 µM: Homo sapiens, U-87 MG, 48 h.

A word on the inhibition: it is how much of the control response was suppressed. Low readings indicate little suppression, high ones strong suppression. In assay [1], `NC(=O)COCCOc1ccc2c(c1)CCC(=O)N2` [TR-G126, 2-(2-((2-oxo-1,2,3,4-tetrahydroquinolin-6-yl)oxy)ethoxy)acetamide] had an activity at 10 µM of 97% and an inhibition at 10 µM of 3%. In the assay on U87-MG human glioma cell, this molecule yielded an activity at 10 µM of 70% and an inhibition at 10 µM of 30%.

In assay [1], `O=C1CCc2cc(OCc3cn(CCOCc4ccccc4)nn3)ccc2N1` [TR-G080, 6-((1-(2-(benzyloxy)ethyl)-1H-1,2,3-triazol-4-yl)methoxy)-3,4-dihydroquinolin-2(1H)-one] yielded an activity at 10 µM of 71% and an inhibition at 10 µM of 29%. In the assay on U87-MG human glioma cell, this molecule displayed an activity at 10 µM of 79% and an inhibition at 10 µM of 21%.

As for `O=C1CCc2cc(OCC(=O)Oc3ccccc3)ccc2N1` [TR-G004, phenyl 2-((2-oxo-1,2,3,4-tetrahydroquinolin-6-yl)oxy)acetate], in assay [1], the activity at 10 µM was 88% and the inhibition at 10 µM was determined as 12%. Besides, in the assay on U87-MG human glioma cell, the activity at 10 µM was 73% and 10 µM produced 27% inhibition.

In assay [1], `CN1CCN(c2ccc(NC(=O)COc3ccc4c(c3)CCC(=O)N4)cc2)CC1` [TR-G043, N-(4-(4-methylpiperazin-1-yl)phenyl)-2-((2-oxo-1,2,3,4-tetrahydroquinolin-6-yl)oxy)acetamide] displayed an activity at 10 µM of 74% and an inhibition at 10 µM of 26%. Further, in the assay on U87-MG human glioma cell, the activity at 10 µM is 73% and the inhibition at 10 µM is 27%.

In assay [1], `O=C(COc1ccc2c(c1)CCC(=O)N2)N/N=C/c1cccc2ccccc12` [TR-G141, (E)-N'-(naphthalen-1-ylmethylene)-2-((2-oxo-1,2,3,4-tetrahydroquinolin-6-yl)oxy)acetohydrazide] yielded an activity at 10 µM of 65% and an inhibition at 10 µM of 35%. In addition, in the assay with U87-MG human glioma cell, the activity at 10 µM was 53% and testing at 10 µM gave an inhibition of 47%.

On to “2-oxo-1,2,3,4-tetrahydroquinolin-6-yl diphenylcarbamate [TR-G020]”, for which, in assay [1], the “Cell Proliferation (%)” value is listed as 80% and the “Inhibition (%)” value was 20%. In the assay on U87-MG human glioma cell, the “Cell Proliferation (%)” value worked out at 72% and the “Inhibition (%)” value amounted to 29%.

For the molecule `C=CCCCOc1ccc2c(c1)CCC(=O)N2` [TR-G144, 6-(pent-4-en-i-yloxy)-3,4-dihydroquinolin-2(1H)-one], the activity at 10 µM was 70% in assay [1] and 61% in the assay on U87-MG human glioma cell. In addition, the inhibition at 10 µM in assay [1] is 30%; in the assay on U87-MG human glioma cell it was 39%.

In assay [1], `O=C1CCc2cc(OC(=O)N3CCCC3)ccc2N1` [TR-G061, 2-oxo-1,2,3,4-tetrahydroquinolin-6-yl pyrrolidine-1-carboxylate] yielded an activity at 10 µM of 92% and an inhibition at 10 µM of 8%. In the assay with U87-MG human glioma cell, this molecule came in with an activity at 10 µM of 84% and an inhibition at 10 µM of 16%.

In assay [1], `Cc1[nH]c2ccccc2c1/C=N/NC(=O)COc1ccc2c(c1)CCC(=O)N2` [TR-G027, (E)-N'-((2-methyl-1H-indol-3-yl)methylene)-2-((2-oxo-1,2,3,4-tetrahydroquinolin-6-yl)oxy)acetohydrazide] gave an activity at 10 µM of 54% and an inhibition at 10 µM of 46%. For the same molecule, in the assay on U87-MG human glioma cell, the activity at 10 µM was determined as 66% and the inhibition at 10 µM was found to be 34%.

On to `O=C1CCc2cc(OC(=O)Cc3ccccc3)ccc2N1` [TR-G007, 2-oxo-1,2,3,4-tetrahydroquinolin-6-yl 2-phenylacetate], for which the activity at 10 µM is 82% in assay [1] and 91% in the assay with U87-MG human glioma cell. For the same molecule, the figures for the inhibition at 10 µM (in assay [1]; with U87-MG human glioma cell) were 18% and 9%, respectively.

Consider `O=C(COc1ccc2c(c1)CCC(=O)N2)N/N=C/c1ccccc1` [TR-G035, (E)-N'-benzylidene-2-((2-oxo-1,2,3,4-tetrahydroquinolin-6-yl)oxy)acetohydrazide], for which, in assay [1], the activity at 10 µM is 74% and 10 µM produced 26% inhibition. In the assay on U87-MG human glioma cell, the activity at 10 µM is 86% and at 10 µM the inhibition was 14%.

With `CC(=O)c1ccc(-n2cc(COc3ccc4c(c3)CCC(=O)N4)nn2)cc1` [TR-G093, 6-((1-(4-acetylphenyl)-1H-1,2,3-triazol-4-yl)methoxy)-3,4-dihydroquinolin-2(1H)-one], the activity at 10 µM in assay [1] was found to be 63%; in the assay on U87-MG human glioma cell, 55%. Also, the inhibition at 10 µM came out at 38% in assay [1] and 45% in the assay on U87-MG human glioma cell.

In assay [1], `COc1ccc(S(=O)(=O)Oc2ccc3c(c2)CCC(=O)N3)cc1OC` [TR-G085, 2-oxo-1,2,3,4-tetrahydroquinolin-6-yl 3,4-dimethoxybenzenesulfonate] showed an activity at 10 µM of 71% and an inhibition at 10 µM of 29%. In the assay with U87-MG human glioma cell, this molecule came in with an activity at 10 µM of 53% and an inhibition at 10 µM of 47%.

For `O=C(COc1ccc2c(c1)CCC(=O)N2)NN=Cc1ccc(Cl)cc1` [TR-G021, N'-(4-chlorobenzylidene)-2-((2-oxo-1,2,3,4-tetrahydroquinolin-6-yl)oxy)acetohydrazide], the results for the activity at 10 µM (in assay [1]; in the assay on U87-MG human glioma cell) were 60% and 65%, respectively. Besides, the results for the inhibition at 10 µM (in assay [1]; in the assay on U87-MG human glioma cell) were 40% and 36%, respectively.

In assay [1], `O=C1CCc2cc(OS(=O)(=O)c3ccc(Br)cc3)ccc2N1` [TR-G048, 2-oxo-1,2,3,4-tetrahydroquinolin-6-yl 4-bromobenzenesulfonate] displayed an activity at 10 µM of 61% and an inhibition at 10 µM of 39%. In the assay on U87-MG human glioma cell, this molecule registered an activity at 10 µM of 69% and an inhibition at 10 µM of 31%.

On to `Cc1ccccc1NC(=O)Oc1ccc2c(c1)CCC(=O)N2` [TR-G134, 2-oxo-1,2,3,4-tetrahydroquinolin-6-yl-o-tolylcarbamate], for which, in assay [1], the “Cell Proliferation (%)” value is recorded as 73% and testing at 10 µM gave an inhibition of 27%. In the assay on U87-MG human glioma cell, the “Cell Proliferation (%)” value was 70% and 10 µM produced 30% inhibition.

In assay [1], `O=C1CCc2cc(OC(=O)CN3CCN(c4ncccn4)CC3)ccc2N1` [TR-G023, 2-oxo-1,2,3,4-tetrahydroquinolin-6-yl 2-(4-(pyrimidin-2-yl)piperazin-1-yl)acetate] gave an activity at 10 µM of 99% and an inhibition at 10 µM of 1%. In the assay on U87-MG human glioma cell, this molecule had an activity at 10 µM of 83% and an inhibition at 10 µM of 17%.

In assay [1], `O=C(COc1ccc2c(c1)CCC(=O)N2)Nc1ccc(N2CCOCC2)cc1` [TR-G120, N-(4-morpholinophenyl)-2-((2-oxo-1,2,3,4-tetrahydroquinolin-6-yl)oxy)acetamide] yielded an activity at 10 µM of 67% and an inhibition at 10 µM of 34%. In addition, in the assay on U87-MG human glioma cell, the activity at 10 µM came out at 68% and the inhibition at 10 µM was determined as 33%.

As for `COc1ccc(C=NNC(=O)COc2ccc3c(c2)CCC(=O)N3)c(OC)c1` [TR-G022, N'-(2,4-dimethoxybenzylidene)-2-((2-oxo-1,2,3,4-tetrahydroquinolin-6-yl)oxy)acetohydrazide], in assay [1], the activity at 10 µM came to 75% and the inhibition at 10 µM was 25%. In the assay with U87-MG human glioma cell, this molecule showed an activity at 10 µM of 98% and an inhibition at 10 µM of 2%.

In assay [1], `CC(=O)OCC1OC(n2cc(COc3ccc4c(c3)CCC(=O)N4)nn2)[C@H](OC(C)=O)[C@@H]1OC(C)=O` (stereo partly drawn) [TR-G058, (3R,4R)-2-(acetoxymethyl)-5-(4-(((2-oxo-1,2,3,4-tetrahydroquinolin-6-yl)oxy)methyl)-1H-1,2,3-triazol-1-yl)tetrahydrofuran-3,4-diyl diacetate] came in with an activity at 10 µM of 100% and an inhibition at 10 µM of 0%. Moreover, in the assay with U87-MG human glioma cell, the activity at 10 µM turned out to be 73% and testing at 10 µM gave an inhibition of 27%.
